Test results from paper PMC10046369, “Low-Affinity/High-Selectivity Dopamine Transport Inhibition Sufficient to Rescue Cognitive Functions in the Aging Rat” (Biomolecules, 2023).

Key:
Test in all cases: biochemical
Design in all cases: KINOMEscan competition binding panel, per cent of control
Conditions in all cases: read-out: %Ctrl @ 2800nM
[1] = molecular target: T1, ABL1-nonphosphorylated (Homo sapiens, UniProt P00519)
T1 construct: nonphosphorylated
In short: (§1)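 Competition binding panel (KINOMEscan) across 450 human kinases and disease-relevant mutants, run to the contractor's standard protocol. Values are % control: (test signal − positive control signal)/(negative control signal − positive control signal) × 100, with lower values indicating stronger binding.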

[2] = molecular target: ALK(L1196M) (Homo sapiens, UniProt Q9UM73, L1196M)
In short: as §1

[3] = molecular target: T2, ASK2 (Homo sapiens, UniProt O95382)
T2 construct: gene MAP3K6
In short: as §1

[4] = molecular target: AXL (Homo sapiens, UniProt P30530)
Chain of AXL (P30530 whole entry): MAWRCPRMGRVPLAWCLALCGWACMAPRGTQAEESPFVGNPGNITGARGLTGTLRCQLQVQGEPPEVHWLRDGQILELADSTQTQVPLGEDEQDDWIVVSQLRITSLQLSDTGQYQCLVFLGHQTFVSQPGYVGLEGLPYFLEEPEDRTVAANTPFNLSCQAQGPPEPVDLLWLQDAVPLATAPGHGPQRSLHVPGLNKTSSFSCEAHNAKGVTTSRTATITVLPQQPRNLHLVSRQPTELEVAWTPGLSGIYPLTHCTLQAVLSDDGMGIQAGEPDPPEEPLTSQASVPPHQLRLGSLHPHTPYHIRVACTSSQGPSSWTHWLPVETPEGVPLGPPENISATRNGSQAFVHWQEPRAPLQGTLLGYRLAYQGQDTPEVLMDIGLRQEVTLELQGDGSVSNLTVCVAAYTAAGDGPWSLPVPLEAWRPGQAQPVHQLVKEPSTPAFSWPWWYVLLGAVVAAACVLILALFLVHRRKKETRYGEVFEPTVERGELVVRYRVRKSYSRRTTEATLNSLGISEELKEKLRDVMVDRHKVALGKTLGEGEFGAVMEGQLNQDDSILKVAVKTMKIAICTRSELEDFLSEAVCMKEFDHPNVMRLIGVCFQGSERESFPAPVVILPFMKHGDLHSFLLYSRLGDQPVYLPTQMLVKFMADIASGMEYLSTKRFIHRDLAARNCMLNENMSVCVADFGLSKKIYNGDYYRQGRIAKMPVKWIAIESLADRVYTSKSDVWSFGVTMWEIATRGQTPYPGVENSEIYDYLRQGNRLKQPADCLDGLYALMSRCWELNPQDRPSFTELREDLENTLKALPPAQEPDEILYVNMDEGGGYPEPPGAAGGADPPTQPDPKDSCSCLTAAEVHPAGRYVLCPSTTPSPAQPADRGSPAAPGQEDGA
In short: as §1

[5] = molecular target: T3, CDC2L1 (Homo sapiens, UniProt P21127)
T3 construct: gene CDK11B
In short: as §1

[6] = molecular target: CDK5 (Homo sapiens, UniProt Q00535)
In short: as §1

[7] = molecular target: CDK8 (Homo sapiens, UniProt P49336)
In short: as §1

[8] = molecular target: CSF1R (Homo sapiens, UniProt P07333)
In short: as §1

[9] = molecular target: CSNK1G1 (Homo sapiens, UniProt Q9HCP0)
In short: as §1

[10] = molecular target: CSNK1G3 (Homo sapiens, UniProt Q9Y6M4)
In short: as §1

[11] = molecular target: CSNK2A1 (Homo sapiens, UniProt P68400)
Chain of CSNK2A1 (P68400 whole entry): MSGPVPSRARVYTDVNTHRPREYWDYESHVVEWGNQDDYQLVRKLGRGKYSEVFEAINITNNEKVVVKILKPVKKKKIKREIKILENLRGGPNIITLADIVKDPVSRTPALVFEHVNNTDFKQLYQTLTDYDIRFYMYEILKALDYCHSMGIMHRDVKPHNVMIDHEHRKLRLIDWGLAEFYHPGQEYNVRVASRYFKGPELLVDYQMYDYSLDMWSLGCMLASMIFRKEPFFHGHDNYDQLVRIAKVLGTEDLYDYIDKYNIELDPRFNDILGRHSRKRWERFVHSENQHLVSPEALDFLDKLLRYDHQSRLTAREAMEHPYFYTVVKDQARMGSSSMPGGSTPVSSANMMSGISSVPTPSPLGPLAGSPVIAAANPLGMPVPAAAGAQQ
In short: as §1

[12] = molecular target: DDR2 (Homo sapiens, UniProt Q16832)
In short: as §1

[13] = molecular target: EGFR(L747-S752del, P753S) (Homo sapiens, UniProt P00533, DEL747-752/P753S)
Chain of EGFR(L747-S752del, P753S) (P00533 with tags, fused parts or gaps DEL747-752/P753S): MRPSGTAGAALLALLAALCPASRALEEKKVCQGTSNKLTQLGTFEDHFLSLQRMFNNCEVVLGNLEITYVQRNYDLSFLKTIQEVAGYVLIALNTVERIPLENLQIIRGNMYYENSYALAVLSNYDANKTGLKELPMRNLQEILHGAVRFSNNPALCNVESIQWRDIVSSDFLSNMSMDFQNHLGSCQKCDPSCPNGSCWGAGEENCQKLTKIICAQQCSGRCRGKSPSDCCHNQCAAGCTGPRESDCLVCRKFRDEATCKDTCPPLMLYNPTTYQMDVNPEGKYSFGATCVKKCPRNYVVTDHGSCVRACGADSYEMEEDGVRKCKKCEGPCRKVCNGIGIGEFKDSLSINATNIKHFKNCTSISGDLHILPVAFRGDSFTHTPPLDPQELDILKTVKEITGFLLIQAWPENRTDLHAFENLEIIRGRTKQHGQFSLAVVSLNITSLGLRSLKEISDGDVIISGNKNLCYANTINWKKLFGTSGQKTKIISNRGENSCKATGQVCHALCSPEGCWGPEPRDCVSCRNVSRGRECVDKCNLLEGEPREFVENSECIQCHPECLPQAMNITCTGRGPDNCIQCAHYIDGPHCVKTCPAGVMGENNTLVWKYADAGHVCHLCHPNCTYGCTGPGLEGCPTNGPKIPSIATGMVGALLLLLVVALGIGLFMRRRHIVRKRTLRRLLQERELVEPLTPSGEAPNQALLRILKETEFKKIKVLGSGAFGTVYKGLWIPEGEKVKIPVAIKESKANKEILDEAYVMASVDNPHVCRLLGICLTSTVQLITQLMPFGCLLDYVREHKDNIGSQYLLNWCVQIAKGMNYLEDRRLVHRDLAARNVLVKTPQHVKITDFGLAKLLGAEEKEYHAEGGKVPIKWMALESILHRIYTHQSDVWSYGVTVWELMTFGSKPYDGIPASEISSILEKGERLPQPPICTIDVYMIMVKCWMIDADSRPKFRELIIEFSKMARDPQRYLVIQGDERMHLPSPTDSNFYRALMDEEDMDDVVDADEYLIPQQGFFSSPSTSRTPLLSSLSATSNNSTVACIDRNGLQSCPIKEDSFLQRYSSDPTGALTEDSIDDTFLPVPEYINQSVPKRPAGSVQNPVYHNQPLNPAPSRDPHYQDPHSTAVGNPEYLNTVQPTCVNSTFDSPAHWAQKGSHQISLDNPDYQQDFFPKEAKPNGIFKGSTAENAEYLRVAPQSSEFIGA
In short: as §1

[14] = molecular target: FES (Homo sapiens, UniProt P07332)
In short: as §1

[15] = molecular target: FGFR2 (Homo sapiens, UniProt P21802)
In short: as §1

[16] = molecular target: FLT3-autoinhibited (Homo sapiens, UniProt P36888)
Chain of FLT3-autoinhibited (P36888 whole entry): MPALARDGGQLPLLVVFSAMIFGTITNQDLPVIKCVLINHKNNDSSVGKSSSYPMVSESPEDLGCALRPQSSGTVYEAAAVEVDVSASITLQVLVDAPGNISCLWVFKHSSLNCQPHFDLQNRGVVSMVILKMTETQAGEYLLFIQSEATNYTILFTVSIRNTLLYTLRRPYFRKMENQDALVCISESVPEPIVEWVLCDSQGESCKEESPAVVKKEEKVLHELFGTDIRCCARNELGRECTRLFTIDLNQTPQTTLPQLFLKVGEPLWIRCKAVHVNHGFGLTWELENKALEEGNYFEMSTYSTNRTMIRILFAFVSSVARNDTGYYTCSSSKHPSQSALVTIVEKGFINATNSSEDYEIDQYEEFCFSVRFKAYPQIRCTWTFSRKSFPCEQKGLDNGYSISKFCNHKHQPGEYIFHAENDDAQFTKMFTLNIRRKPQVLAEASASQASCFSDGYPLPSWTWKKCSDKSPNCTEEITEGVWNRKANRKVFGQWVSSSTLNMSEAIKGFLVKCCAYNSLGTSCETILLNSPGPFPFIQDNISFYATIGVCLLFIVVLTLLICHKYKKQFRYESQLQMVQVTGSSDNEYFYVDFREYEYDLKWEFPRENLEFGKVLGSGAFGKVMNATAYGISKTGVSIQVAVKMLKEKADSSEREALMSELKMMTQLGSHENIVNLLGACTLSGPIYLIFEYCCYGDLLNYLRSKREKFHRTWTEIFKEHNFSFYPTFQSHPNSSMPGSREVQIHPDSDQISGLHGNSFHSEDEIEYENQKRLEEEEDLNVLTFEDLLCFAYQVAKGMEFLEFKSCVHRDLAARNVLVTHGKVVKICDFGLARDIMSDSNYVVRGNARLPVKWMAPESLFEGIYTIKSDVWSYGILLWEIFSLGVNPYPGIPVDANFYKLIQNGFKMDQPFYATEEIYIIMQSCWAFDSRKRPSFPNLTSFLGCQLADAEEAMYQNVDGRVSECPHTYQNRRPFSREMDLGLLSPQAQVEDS
In short: as §1

[17] = molecular target: HIPK1 (Homo sapiens, UniProt Q86Z02)
In short: as §1

[18] = molecular target: KIT(D816V) (Homo sapiens, UniProt P10721, D816V)
In short: as §1

[19] = molecular target: T4, MRCKA (Homo sapiens, UniProt Q5VT25)
T4 construct: gene CDC42BPA
In short: as §1

[20] = molecular target: MYLK (Homo sapiens, UniProt Q15746)
In short: as §1

[21] = molecular target: PRKCQ (Homo sapiens, UniProt Q04759)
Chain of PRKCQ (Q04759 whole entry): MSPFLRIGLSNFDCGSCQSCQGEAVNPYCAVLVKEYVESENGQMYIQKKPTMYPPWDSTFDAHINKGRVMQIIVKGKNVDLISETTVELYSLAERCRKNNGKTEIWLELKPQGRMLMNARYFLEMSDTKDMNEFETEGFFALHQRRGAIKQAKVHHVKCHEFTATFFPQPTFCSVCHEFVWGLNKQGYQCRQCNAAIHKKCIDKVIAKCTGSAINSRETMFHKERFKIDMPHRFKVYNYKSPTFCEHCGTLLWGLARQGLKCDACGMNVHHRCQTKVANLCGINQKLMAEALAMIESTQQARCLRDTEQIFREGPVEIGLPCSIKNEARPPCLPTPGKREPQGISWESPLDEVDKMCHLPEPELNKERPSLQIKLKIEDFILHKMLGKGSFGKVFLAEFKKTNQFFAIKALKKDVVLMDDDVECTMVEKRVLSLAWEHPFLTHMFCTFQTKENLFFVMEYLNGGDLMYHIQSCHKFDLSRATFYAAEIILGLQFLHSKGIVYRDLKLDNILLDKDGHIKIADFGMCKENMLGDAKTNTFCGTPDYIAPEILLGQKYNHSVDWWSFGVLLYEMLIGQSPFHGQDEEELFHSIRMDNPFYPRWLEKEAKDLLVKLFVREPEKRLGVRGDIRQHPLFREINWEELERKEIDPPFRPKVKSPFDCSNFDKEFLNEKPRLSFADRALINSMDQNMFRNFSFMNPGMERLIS
In short: as §1

[22] = molecular target: PRKG1 (Homo sapiens, UniProt Q13976)
In short: as §1

[23] = molecular target: RIOK3 (Homo sapiens, UniProt O14730)
In short: as §1

[24] = molecular target: T5, RSK4(Kin.Dom.1-N-terminal) (Homo sapiens, UniProt Q9UK32)
T5 construct: gene RPS6KA6; Kin.Dom.1-N-terminal
T5 sequence (Q9UK32 whole entry): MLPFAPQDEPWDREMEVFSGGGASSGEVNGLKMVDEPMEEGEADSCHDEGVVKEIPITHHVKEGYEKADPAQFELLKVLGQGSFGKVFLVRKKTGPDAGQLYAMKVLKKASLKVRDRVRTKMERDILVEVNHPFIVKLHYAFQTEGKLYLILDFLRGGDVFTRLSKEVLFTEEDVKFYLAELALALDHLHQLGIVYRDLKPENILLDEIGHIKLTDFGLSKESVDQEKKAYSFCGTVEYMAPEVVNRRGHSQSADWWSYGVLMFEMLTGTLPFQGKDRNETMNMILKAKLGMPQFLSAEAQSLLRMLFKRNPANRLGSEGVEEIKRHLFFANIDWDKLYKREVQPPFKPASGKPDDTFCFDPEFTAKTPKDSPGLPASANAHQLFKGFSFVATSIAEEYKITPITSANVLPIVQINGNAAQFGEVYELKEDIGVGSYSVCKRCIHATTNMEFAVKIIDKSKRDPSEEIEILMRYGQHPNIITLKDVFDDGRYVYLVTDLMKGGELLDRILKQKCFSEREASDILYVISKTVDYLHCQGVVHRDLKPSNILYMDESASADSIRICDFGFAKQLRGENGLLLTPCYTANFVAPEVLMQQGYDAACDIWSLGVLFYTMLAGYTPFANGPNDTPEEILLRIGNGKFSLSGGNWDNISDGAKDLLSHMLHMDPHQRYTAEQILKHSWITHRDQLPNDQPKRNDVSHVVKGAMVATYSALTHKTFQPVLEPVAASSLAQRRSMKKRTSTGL
In short: as §1

[25] = molecular target: SNRK (Homo sapiens, UniProt Q9NRH2)
In short: as §1

[26] = molecular target: TGFBR2 (Homo sapiens, UniProt P37173)
In short: as §1

`[O-][S@@+](Cc1cncs1)C(c1ccccc1)c1ccccc1` [S-CE-123, (S)-5-((Benzhydrylsulfinyl)Methyl)Thiazole] was tested, and the remaining binding at 2.8 µM [1] was 93%, the remaining binding at 2.8 µM [2] was 100% and the remaining binding at 2.8 µM [3] was 100%. For the same compound, the remaining binding at 2.8 µM [4] was 96%, the remaining binding at 2.8 µM [5] was 95% and the remaining binding at 2.8 µM [6] was 97%. For the same compound, the remaining binding at 2.8 µM [7] was 96%, the remaining binding at 2.8 µM [8] was 76% and the remaining binding at 2.8 µM [9] was 96%. It also gave a remaining binding at 2.8 µM [10] of 98%, a remaining binding at 2.8 µM [11] of 88% and a remaining binding at 2.8 µM [12] of 100%. For the same compound, the remaining binding at 2.8 µM [13] was 96%, the remaining binding at 2.8 µM [14] was 95% and the remaining binding at 2.8 µM [15] was 87%. For the same compound, the remaining binding at 2.8 µM [16] was 99%, the remaining binding at 2.8 µM [17] was 90% and the remaining binding at 2.8 µM [18] was 97%. The remaining binding at 2.8 µM [19] was 95%, the remaining binding at 2.8 µM [20] was 96% and the remaining binding at 2.8 µM [21] was 100%. It also gave a remaining binding at 2.8 µM [22] of 100%, a remaining binding at 2.8 µM [23] of 97% and a remaining binding at 2.8 µM [24] of 100%. For the same compound, the remaining binding at 2.8 µM [25] was 98% and the remaining binding at 2.8 µM [26] was 88%.
